Our source for the inhibition values is patent US20220009920A1 (GB005, Inc., priority 2020, published 2022).

What all share (experiment): Large panel kinase profiling
Holding throughout (type): biochemical
Conditions in all cases: 1 μM test article, 1 mM ATP

For one assay, the target named is T1, CSF1R/FMS (Homo sapiens, UniProt P07333).
T1 construct: AssayQuant Technologies, Inc. (service laboratory)
Summed up:
(§1)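 Steps: combine kinase, CSox-Sensor substrate, 1 mM ATP and 1 μM compound; seal and incubate at 30° C.; read top fluorescence kinetically each minute, Ex 360 nm/Em 485 nm.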

The target in the next assay is T2, EIF2AK2/PKR (Homo sapiens, UniProt P19525).
T2 construct: AssayQuant Technologies, Inc. (service laboratory)
Summed up: as §1

The next assay concerns the target T3, GAK (Homo sapiens, UniProt O14976).
T3 construct: AssayQuant Technologies, Inc. (service provider)
T3 sequence (O14976 1-1311): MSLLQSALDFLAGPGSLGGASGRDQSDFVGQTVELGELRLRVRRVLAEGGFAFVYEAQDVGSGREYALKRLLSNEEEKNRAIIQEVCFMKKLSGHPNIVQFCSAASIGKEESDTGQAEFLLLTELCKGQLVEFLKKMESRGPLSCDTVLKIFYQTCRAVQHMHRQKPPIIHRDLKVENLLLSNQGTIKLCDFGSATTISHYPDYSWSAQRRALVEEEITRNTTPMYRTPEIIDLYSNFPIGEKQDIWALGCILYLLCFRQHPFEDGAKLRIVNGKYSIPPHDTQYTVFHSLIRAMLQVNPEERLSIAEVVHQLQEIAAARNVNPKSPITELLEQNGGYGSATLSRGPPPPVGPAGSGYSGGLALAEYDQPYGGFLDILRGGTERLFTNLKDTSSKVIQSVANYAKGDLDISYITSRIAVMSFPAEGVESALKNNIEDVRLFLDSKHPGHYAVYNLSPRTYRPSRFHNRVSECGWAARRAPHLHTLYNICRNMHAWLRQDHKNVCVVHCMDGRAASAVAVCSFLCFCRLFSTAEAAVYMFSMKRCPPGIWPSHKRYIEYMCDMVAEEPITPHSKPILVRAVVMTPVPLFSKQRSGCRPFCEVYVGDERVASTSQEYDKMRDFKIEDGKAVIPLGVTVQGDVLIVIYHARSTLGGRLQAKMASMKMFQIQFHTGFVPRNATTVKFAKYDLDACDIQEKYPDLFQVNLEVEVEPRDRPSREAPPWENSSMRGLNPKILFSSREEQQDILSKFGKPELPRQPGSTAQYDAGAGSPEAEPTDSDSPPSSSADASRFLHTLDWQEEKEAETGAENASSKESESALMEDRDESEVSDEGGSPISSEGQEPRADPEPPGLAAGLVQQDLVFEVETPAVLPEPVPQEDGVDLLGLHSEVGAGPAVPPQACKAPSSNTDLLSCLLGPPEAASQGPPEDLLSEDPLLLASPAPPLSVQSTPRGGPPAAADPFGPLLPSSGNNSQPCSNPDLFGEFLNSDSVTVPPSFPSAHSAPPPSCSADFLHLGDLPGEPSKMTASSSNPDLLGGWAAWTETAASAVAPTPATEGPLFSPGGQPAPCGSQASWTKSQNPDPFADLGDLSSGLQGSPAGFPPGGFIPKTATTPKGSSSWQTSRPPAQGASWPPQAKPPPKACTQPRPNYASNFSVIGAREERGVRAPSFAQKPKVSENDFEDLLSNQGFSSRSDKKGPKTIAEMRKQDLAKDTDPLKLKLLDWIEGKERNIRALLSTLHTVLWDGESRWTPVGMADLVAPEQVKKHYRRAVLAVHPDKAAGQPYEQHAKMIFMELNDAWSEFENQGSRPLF
Summed up:
as §1

In another assay the target is T4, TBK1 (Homo sapiens, UniProt Q9UHD2).
T4 construct: AssayQuant Technologies, Inc. (contract laboratory that ran the panel)
T4 sequence (Q9UHD2 1-729): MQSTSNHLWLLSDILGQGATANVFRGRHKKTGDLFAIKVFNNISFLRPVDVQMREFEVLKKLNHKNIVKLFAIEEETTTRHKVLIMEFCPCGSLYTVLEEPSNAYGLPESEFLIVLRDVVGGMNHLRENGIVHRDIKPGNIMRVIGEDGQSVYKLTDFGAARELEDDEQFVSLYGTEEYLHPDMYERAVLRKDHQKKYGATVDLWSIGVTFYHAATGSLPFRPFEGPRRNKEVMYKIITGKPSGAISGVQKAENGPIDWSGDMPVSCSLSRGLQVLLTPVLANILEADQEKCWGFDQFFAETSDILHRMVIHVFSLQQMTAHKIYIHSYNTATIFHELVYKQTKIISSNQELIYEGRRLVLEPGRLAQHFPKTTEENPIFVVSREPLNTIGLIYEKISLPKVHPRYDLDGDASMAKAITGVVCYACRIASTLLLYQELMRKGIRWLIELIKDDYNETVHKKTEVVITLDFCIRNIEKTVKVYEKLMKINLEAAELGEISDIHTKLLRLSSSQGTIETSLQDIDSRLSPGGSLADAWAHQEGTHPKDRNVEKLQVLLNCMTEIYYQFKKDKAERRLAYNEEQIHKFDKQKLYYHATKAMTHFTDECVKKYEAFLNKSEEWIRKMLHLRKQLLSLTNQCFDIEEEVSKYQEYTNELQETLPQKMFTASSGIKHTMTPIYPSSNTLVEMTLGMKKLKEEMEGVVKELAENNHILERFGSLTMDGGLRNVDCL
The gist of the method: as §1

T2 sequence (P19525 whole entry): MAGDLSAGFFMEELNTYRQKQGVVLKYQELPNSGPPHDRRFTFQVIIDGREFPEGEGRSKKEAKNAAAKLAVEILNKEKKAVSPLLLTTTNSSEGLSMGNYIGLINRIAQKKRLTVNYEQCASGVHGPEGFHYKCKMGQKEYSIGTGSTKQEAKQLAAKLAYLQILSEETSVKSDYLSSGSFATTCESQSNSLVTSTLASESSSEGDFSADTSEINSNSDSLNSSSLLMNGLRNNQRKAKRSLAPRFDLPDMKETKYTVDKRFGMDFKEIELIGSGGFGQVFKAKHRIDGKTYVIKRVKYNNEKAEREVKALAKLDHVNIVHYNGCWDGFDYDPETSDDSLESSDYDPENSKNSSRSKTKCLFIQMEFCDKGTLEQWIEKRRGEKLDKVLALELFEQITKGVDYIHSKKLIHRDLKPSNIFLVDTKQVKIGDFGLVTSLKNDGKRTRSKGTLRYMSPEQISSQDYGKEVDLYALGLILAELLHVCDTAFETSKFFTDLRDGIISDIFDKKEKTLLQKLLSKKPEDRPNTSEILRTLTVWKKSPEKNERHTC
T1 sequence (P07333 20-972): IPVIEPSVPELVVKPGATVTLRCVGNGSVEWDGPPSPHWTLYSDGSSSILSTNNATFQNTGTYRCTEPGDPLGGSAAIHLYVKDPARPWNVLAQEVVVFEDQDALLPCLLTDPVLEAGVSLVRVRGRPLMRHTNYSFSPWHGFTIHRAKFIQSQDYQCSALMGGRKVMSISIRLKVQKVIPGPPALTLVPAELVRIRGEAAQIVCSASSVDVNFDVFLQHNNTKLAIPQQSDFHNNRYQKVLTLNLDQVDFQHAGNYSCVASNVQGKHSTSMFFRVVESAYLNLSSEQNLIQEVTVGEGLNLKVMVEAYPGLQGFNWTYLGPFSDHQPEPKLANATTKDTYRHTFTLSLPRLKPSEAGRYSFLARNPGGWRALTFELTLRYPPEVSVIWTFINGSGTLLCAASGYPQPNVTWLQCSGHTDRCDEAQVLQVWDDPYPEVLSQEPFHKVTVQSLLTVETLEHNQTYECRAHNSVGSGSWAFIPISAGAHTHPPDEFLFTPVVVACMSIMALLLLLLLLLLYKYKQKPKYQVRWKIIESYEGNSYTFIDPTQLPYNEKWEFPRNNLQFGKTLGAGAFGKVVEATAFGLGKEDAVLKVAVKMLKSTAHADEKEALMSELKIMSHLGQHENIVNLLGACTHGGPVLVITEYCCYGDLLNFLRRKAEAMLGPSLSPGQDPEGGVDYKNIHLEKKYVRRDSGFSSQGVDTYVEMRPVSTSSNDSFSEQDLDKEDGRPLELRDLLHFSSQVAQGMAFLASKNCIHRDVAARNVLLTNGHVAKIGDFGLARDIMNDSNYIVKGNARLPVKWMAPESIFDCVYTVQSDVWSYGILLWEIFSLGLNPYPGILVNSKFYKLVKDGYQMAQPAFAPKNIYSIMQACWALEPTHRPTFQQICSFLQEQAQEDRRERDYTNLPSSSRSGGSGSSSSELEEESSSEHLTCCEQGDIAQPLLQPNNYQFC

Broadly, the inhibition is the drop in the measured response relative to a control, in per cent. Take `C=CC(=O)N1CCC[C@@H](c2c(F)cc(C(N)=O)c3[nH]c4c(c23)CCC4)C1` [Compound 10-2, (S)-8-(1-acryloylpiperidin-3-yl)-7-fluoro-1,2,3,4-tetrahydrocyclo-penta[b]indole-5-carboxamide]: the inhibition at 1 µM against CSF1R/FMS was 20.2%; against EIF2AK2/PKR, 65.5%; against GAK, -28.4%; on TBK1, -31.3%.

For `C=CC(=O)N1CCCC(c2c(F)cc(C(N)=O)c3[nH]c4c(c23)CCCCC4)C1` (single isomer, unassigned) [Compound 5-6], the inhibition at 1 µM against CSF1R/FMS was 21.3%; at EIF2AK2/PKR, -28%; against GAK it was 17.9%; on TBK1 it was 10.9%.

With `C=CC(=O)N1CCC[C@@H](c2c(F)cc(C(N)=O)c3[nH]c4c(c23)CC2(CC4)CC2)C1` [Compound 6-2, (S)-5-(1-acryloylpiperidin-3-yl)-6-fluoro-1,2,4,9-tetrahydrospiro[carbazole-3,1′-cyclopropane]-8-carboxamide], the inhibition at 1 µM against CSF1R/FMS was 24.9%; at EIF2AK2/PKR, -1.6%; against GAK, -3.7%; on TBK1, -34.6%.
